Source: PubChem BioAssay (NCI)
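Grown in 96-well plates, cells were treated for 48 hours with each compound at five concentrations. Insufficient inhibition: endpoint recorded as highest concentration tested. GI50: concentration for 50% inhibition of growth. TGI marks complete inhibition of growth.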

How the values were obtained:
Test in all cases: DTP human tumour cell line panel, 48 h
[1] = tested on: 786-0 renal
[2] = tested on: MCF7 breast
[3] = tested on: UACC-62 melanoma
[4] = tested on: NCI-H226 lung
[5] = tested on: MOLT-4 leukemia
[6] = tested on: RPMI-8226 leukemia
[7] = tested on: SK-MEL-5 melanoma
[8] = tested on: CCRF-CEM leukemia
[9] = tested on: HOP-62 NSCLC
[10] = tested on: U251 CNS
[11] = tested on: CAKI-1 renal
[12] = tested on: UO-31 renal
[13] = tested on: NCI-H522 lung
[14] = tested on: SK-OV-3 ovarian
[15] = tested on: HS 578T breast
[16] = tested on: HOP-92 NSCLC
[17] = tested on: SK-MEL-2 melanoma
[18] = tested on: RXF 393 renal
[19] = tested on: SW-620 colon
[20] = tested on: SF-295 CNS
[21] = tested on: COLO 205 colon
[22] = tested on: HCT-116 colon
[23] = tested on: K-562 leukemia
[24] = tested on: A498 renal
[25] = tested on: IGROV1 ovarian
[26] = tested on: TK-10 renal
[27] = tested on: SR leukemia
[28] = tested on: NCI-H460 lung
[29] = tested on: SF-268 CNS
[30] = tested on: UACC-257 melanoma
[31] = tested on: OVCAR-5 ovarian
[32] = tested on: OVCAR-8 ovarian
[33] = tested on: OVCAR-3 ovarian
[34] = tested on: BT-549 breast
[35] = tested on: NCI/ADR-RES ovarian
[36] = tested on: EKVX NSCLC
[37] = tested on: SF-539 CNS
[38] = tested on: HCC-2998 colon
[39] = tested on: MDA-MB-231 breast
[40] = tested on: MDA-MB-435
[41] = tested on: A549 NSCLC
[42] = tested on: HL-60(TB) leukemia
[43] = tested on: HCT-15 colon
[44] = tested on: T-47D breast
[45] = tested on: ACHN renal
[46] = tested on: OVCAR-4 ovarian
[47] = tested on: MALME-3M melanoma
[48] = tested on: SN12C renal
[49] = tested on: HT29 colon
[50] = tested on: SNB-19 CNS
[51] = tested on: LOX IMVI melanoma
[52] = tested on: SNB-75 CNS
[53] = tested on: SK-MEL-28 melanoma
[54] = tested on: PC-3 prostate
[55] = tested on: DU-145 prostate
[56] = tested on: NCI-H23 lung
[57] = tested on: KM12 colon

## CC[C@H]1OC(=O)[C@H](C)[C@@H](O[C@H]2C[C@@](C)(OC)[C@@H](O)[C@H](C)O2)[C@H](C)[C@@H](O[C@@H]2O[C@H](C)C[C@H](N(C)C)[C@H]2O)[C@](C)(OC)C/C(C)=C2/O[C@@]1(C)C=C2C
[1]
  GI50: 1640 nM
  TGI: 3160 nM
[2]
  GI50: 1820 nM
  TGI: 3630 nM
[3]
  GI50: 1760 nM
  TGI: 3180 nM
[4]
  GI50: 2120 nM
  TGI: 4420 nM
[5]
  GI50: 1960 nM
  TGI: 4490 nM
[6]
  GI50: 1900 nM
  TGI: 5140 nM
[7]
  GI50: 1790 nM
  TGI: 3210 nM
[8]
  GI50: 2220 nM
  TGI: 5620 nM
[9]
  GI50: 2310 nM
  TGI: 4740 nM
[10]
  GI50: 1750 nM
  TGI: 3540 nM
[11]
  GI50: 1510 nM
  TGI: 2930 nM
[12]
  GI50: 1370 nM
  TGI: 2650 nM
[13]
  GI50: 1720 nM
  TGI: 3630 nM
[14]
  GI50: 1910 nM
  TGI: 3750 nM
[15]
  GI50: 1680 nM
  TGI: 3620 nM
[16]
  GI50: 1570 nM
  TGI: 3820 nM
[17]
  GI50: 1850 nM
  TGI: 3730 nM
[18]
  GI50: 2090 nM
  TGI: 3750 nM
[19]
  GI50: 1780 nM
  TGI: 3420 nM
[20]
  GI50: 1850 nM
  TGI: 3350 nM
[21]
  GI50: 1680 nM
  TGI: 3690 nM
[22]
  GI50: 1930 nM
  TGI: 4360 nM
[23]
  GI50: 1560 nM
  TGI: 4800 nM
[24]
  GI50: 1750 nM
  TGI: 3590 nM
[25]
  GI50: 1590 nM
  TGI: 3030 nM
[26]
  GI50: 1720 nM
  TGI: 3320 nM
[27]
  GI50: 1970 nM
  TGI: 5090 nM
[28]
  GI50: 1810 nM
  TGI: 3350 nM
[29]
  GI50: 1600 nM
  TGI: 3300 nM
[30]
  GI50: 1830 nM
  TGI: 3620 nM
[31]
  GI50: 1680 nM
  TGI: 3060 nM
[32]
  GI50: 2200 nM
  TGI: 5750 nM
[33]
  GI50: 1760 nM
  TGI: 3280 nM
[34]
  GI50: 1660 nM
  TGI: 3280 nM
[35]
  GI50: 1770 nM
  TGI: 3570 nM
[36]
  GI50: 1710 nM
  TGI: 3260 nM
[37]
  GI50: 1620 nM
  TGI: 2990 nM
[38]
  GI50: 1140 nM
  TGI: 2530 nM
[39]
  GI50: 1670 nM
  TGI: 3130 nM
[40]
  GI50: 1670 nM
  TGI: 3150 nM
[41]
  GI50: 1630 nM
  TGI: 3420 nM
[42]
  GI50: 1860 nM
  TGI: 4160 nM
[43]
  GI50: 1890 nM
  TGI: 3600 nM
[44]
  GI50: 1960 nM
  TGI: 4560 nM
[45]
  GI50: 1760 nM
  TGI: 3150 nM
[46]
  GI50: 1850 nM
  TGI: 4220 nM
[47]
  GI50: 1580 nM
  TGI: 2970 nM
[48]
  GI50: 1640 nM
  TGI: 3020 nM
[49]
  GI50: 1830 nM
  TGI: 4140 nM
[50]
  GI50: 1700 nM
  TGI: 3130 nM
[51]
  GI50: 1610 nM
  TGI: 3080 nM
[52]
  GI50: 1270 nM
  TGI: 2640 nM
[53]
  GI50: 1890 nM
  TGI: 3320 nM
[54]
  GI50: 1680 nM
  TGI: 3460 nM
[55]
  GI50: 1820 nM
  TGI: 3390 nM
[56]
  GI50: 1960 nM
  TGI: 3630 nM
[57]
  GI50: 1630 nM
  TGI: 3110 nM
